Tests used:
NIH3T3-RIPK3 cells = test: RIPK3 dimerization-induced necroptosis (AP20187); format: cell-based, mouse; details: AP20187 100 nM, 24 h
Procedure: (§1) Recombinant proteins were incubated with PK6 and PK68 as indicated. […] NIH3T3-RIPK3 cells were pretreated with indicated compounds for 1 h and subsequently treated with T (40 ng/ml)/S (100 nM)/Z (20 μM) or AP20187 (100 nM) for 24 h. Cell viability was determined by measuring ATP levels. e PK6 and PK68 have no effect on MLKL dimerization-induced cell death in HeLa-MLKL (1–190) cells that stably express MLKL (1–190aa) fused to DmrB. HeLa-MLKL (1–190) cells were pretreated with indicated compounds for 1 h and subsequently treated with AP20187 (100 nM) for 24 h. Cell viability was determined by measuring ATP levels.
(§2) Further, we evaluated the selectivity of PK68 against a panel of 369 kinases provided by Reaction Biology (at 1000 nM). […] In addition, we followed on some of the active “hits” from the kinome scan. PK68 was tested against TNIK and TRKA by a reputable CRO company. […] RIPK1 is known to mediate NF-κB activation independently of its kinase activity. […] It has been shown that homodimerization of RIPK3 or MLKL induced by the dimerizer leads to necroptosis bypassing the upstream signals[10],[37]. […] This dimerized RIPK3-induced necroptosis was blocked by RIPK3 inhibitor GSK873 but was not blocked by the RIPK1 inhibitor necrostatin-1. […] (Fig. 4e).
(§3) The cell viability was analyzed by using the CellTiter-Glo Luminescent Cell Viability Assay kit following the manufacturer’s instructions (Promega). Luminescence was measured with SpectraMax i3x (Molecular Devices).

[1] = test system: B16-F10 or RFP-LL/2 cells; test: Proliferation rate and invasion ability without endothelial monolayer; format: cell-based, mouse; details: B16-F10 or RFP-LL/2, in vitro
Procedure: Studies have shown that RIPK1 kinase activity is involved in the promotion of tumor metastasis through death receptor 6-dependent necroptosis of endothelial cells[22] or VEGF-dependent activation of vascular permeability. We thus evaluated the therapeutic effect of PK68 on lung metastasis of mouse melanoma B16-F10 cells in vivo. […] After 2 weeks, the metastasis of B16-F10 cells was measured by histological analysis and assessed as the number of metastasis nodules in the lung. […] Two weeks after intravenous injection of RFP-LL/2 cells, RFP^+ LL/2 cells were isolated from the tumor tissues by flow cytometer sorting and no signal of phosphorylated RIPK1 was detected in these tumors cells (Supplementary Fig. 22). Six hours after intravenous injection of RFP-LL/2 cells into C57BL/6 mice, the RFP-LL/2 cells have extravasated through blood vessels into the lung (Supplementary Fig. 23). […] Further, we evaluated the effect of PK68 on the tumor cell transmigration across the cultured endothelium. We isolated CD31^+ endothelial cells from the lungs and performed the transendothelial migration assay as previously reported. […]
(A-B) B16-F10 and RFP-LL/2 cells were pretreated with indicated compounds for 1h and then cell viability was measured by cell Titer-Glo. (C) B16-F10 and RFP-LL/2 cells were pre-treated with indicated compounds and invasion ability was measured by the transwell assay.

L929 cells = test: TNF-induced necroptosis, cell viability by ATP levels; format: cell-based; details: Mus musculus, L929, 24 h, read-out: EC50(nM) L929
Procedure: (§4) Necroptosis is tightly regulated by RIP kinases including RIPK1 and RIPK3. To develop new necroptosis inhibitors, we screened a small-molecule library of around 240 potential kinase inhibitors that were designed with novel structures to affect the ATP-binding pocket of protein kinases. Human colon cancer HT-29 cells were treated with these compounds for […], followed by treatment with necroptotic stimuli (TNFα, Smac mimetic, and z-VAD) that are known to activate TNF-mediated necroptosis. After 48 h, cell viability was analyzed by monitoring ATP levels.
(§5) Fig. 1 PK6 efficiently blocks TNF-α induced necroptosis in both human and mouse cells. a HT-29 cells cultured in 96-well plates were pretreated with the indicated compounds (10 μM) from a library consisting of ~240 compounds that we designed with novel structures for 1 h and subsequently treated with 40 ng/ml TNF-α (T), 100 nM Smac mimetic (S), and the caspase inhibitor 20 μM z-VAD(Z) for 48 h. Cell viability was assessed by measuring ATP levels. Data are represented as the mean ± standard deviation of duplicates. b Chemical structure of PK6. c Dose response curve and EC50 ± SD value for PK6 in TNF-α induced necroptosis in HT-29 cells. Cells were pretreated with indicated concentrations of PK6 for 1 h prior to the treatment with T (40 ng/ml), S (100 nM), and Z (20 μM) for 48 h. Cell viability was assessed by measuring ATP levels. d U937 cells were pretreated with indicated concentrations of PK6 for 1 h followed by the treatment with T (40 ng/ml), S (100 nM), and Z (20 μM) for 24 h. e MEF cells were pretreated with indicated concentrations of PK6 for 1 h followed by the treatment with T (40 ng/ml), S (100 nM), and Z (20 μM) for 24 h. f L929 cells were pretreated with indicated concentrations of PK6 for 1 h prior to the treatment with S (100 nM) and Z (20 μM) for 24 h.
(§6) Fig. 2 Chemical optimization of PK6 leads to improvements in anti-necroptotic activity. a, b The effects of the indicated compounds on cell viability were examined in HT-29 cells (a) and L929 cells (b). HT-29 cells were treated as indicate for 48 h and L929 cells for 24 h. Cell viability was assessed by measuring ATP levels. Data are represented as the mean ± standard deviation of triplicates. c Structure and EC50 ± SD value of each compound are shown in the table. EC50 values are the average of at least two independent determinations. d Lead optimization of PK6 TEXT PRINTED IN THE PICTURE: (c) PK6: EC50(nM) HT-29: 1200±53; EC50(nM) L929: 760±26 | (c) PK67: EC50(nM) HT-29: 250±6.3; EC50(nM) L929: 130±6.8 | (c) PK81: EC50(nM) HT-29: 120±7.6; EC50(nM) L929: 20±0.98 | (c) PK84: EC50(nM) HT-29: 97±6.7; EC50(nM) L929: 45±2.1 | (c) PK93: EC50(nM) HT-29: 130±36; EC50(nM) L929: 30±7.4 | (c) PK86: EC50(nM) HT-29: 73±3.9; EC50(nM) L929: 15±1.0 | (c) PK68: EC50(nM) HT-29: 23±1.4; EC50(nM) L929: 13±0.85
as §3

HT-29 cells = test: TNF-induced necroptosis (TNFα/Smac mimetic/z-VAD), cell viability by ATP levels; format: cell-based, human; details: Homo sapiens, HT-29, 48 h, T/S/Z 48 h, read-out: EC50(nM) HT-29
Procedure: as §4, §5, §6, §3

human cells = test system: human cells; parameters: method as in PMID 27551444, PMID 28151659; details: cited from earlier work
mouse and rat = test system: mouse and rat; parameters: method as in PMID 27551444, PMID 28151659; details: cited from earlier work
HeLa-MLKL (1–190) cells = test: MLKL dimerization-induced cell death (AP20187); format: cell-based, human; details: AP20187 100 nM, 24 h
Procedure: as §1, §2, §3

With `CN1C(=O)C(Cc2c[nH]c3ccccc23)NC1=S` (stereo not drawn) [necrostatin-1, Necrostatin-1, reference compound] the RIPK3 dimerization-induced necroptosis (NIH3T3-RIPK3 cells) was “not blocked”.
In the case of `CN1C(=O)NC(Cc2c[nH]c3c(Cl)cccc23)C1=O` (stereo not drawn) [Nec-1s, 7-Cl-O-Nec-1, reference compound], the “proliferation rate and invasion ability” value [1] is reported as “no obvious influence”.
For `CC(=O)Nc1cn2cc(-c3cnc(C)c(NC(=O)OC4CCCCC4)c3)ccc2n1` [PK84, cyclohexyl (5-(2-acetamidoimidazo[1,2-a]pyridin-6-yl)-2-methylpyridin-3-yl)carbamate], the EC50 (L929 cells) was 45 ± 2.1 nM, the EC50 (HT-29 cells) was 97 ± 6.7 nM and the melting point was 268 to 269 °C (dec.).
In the case of `CN1C(=O)[C@@H](NC(=O)c2n[nH]c(Cc3ccccc3)n2)COc2ccccc21` [GSK2982772], the “potency in human cells” value (human cells) is listed as “extremely potent” and the “cellular efficacy in mouse and rat” value (mouse and rat) is listed as “highly reduced cellular efficacy”.
For `CC(=O)Nc1nc2ccc(-c3cnc(C)c(NC(=O)OC4CCCCC4)c3)nc2s1` [PK93, cyclohexyl (5-(2-acetamidothiazolo[5,4-b]pyridin-5-yl)-2-methylpyridin-3-yl)carbamate], the EC50 (L929 cells) was 30 ± 7.4 nM, the EC50 (HT-29 cells) was 130 ± 36 nM and the melting point was 230 to 231 °C (dec.).
In the case of `CC(=O)Nc1nc2ccc(-c3cnc(C)c(NC(=O)CC4CCCCC4)c3)cc2s1` [PK67, N-(5-(2-acetamidobenzo[d]thiazol-6-yl)-2-methylpyridin-3-yl)-2-cyclohexylacetamide], the EC50 (L929 cells) is reported as 130 nM and the EC50 (HT-29 cells) is reported as 250 nM.
In the case of `CC(C)(C)C(=O)N1N=CC[C@H]1c1ccccc1` [GSK963], the “potency in human cells” value (human cells) is given as “extremely potent” and the “cellular efficacy in mouse and rat” value (mouse and rat) is given as “highly reduced cellular efficacy”.
For `CC(=O)Nc1nc2ccc(-c3cc(NC(=O)OC4CCCCC4)c(C)cn3)cc2s1` [PK86, cyclohexyl (2-(2-acetamidobenzo[d]thiazol-6-yl)-5-methylpyridin-4-yl)carbamate], the EC50 (L929 cells) was 15 ± 1 nM, the EC50 (HT-29 cells) was 73 ± 3.9 nM and the melting point was 227 to 228 °C.
For `COc1nccnc1NS(=O)(=O)c1ccc(NC(=O)/C=C/c2ccc([N+](=O)[O-])s2)cc1` [necrosulfonamide, reference compound], the “polymerized MLKL-induced necroptosis” value (HeLa-MLKL (1–190) cells) was “effectively suppressed”.
With `CC(=O)Nc1nc2ccc(-c3cnc(C)c(NC(=O)OC4CCCC4)c3)cc2s1` [PK81, cyclopentyl (5-(2-acetamidobenzo[d]thiazol-6-yl)-2-methylpyridin-3-yl)carbamate] the EC50 (L929 cells) was 20 ± 0.98 nM, the EC50 (HT-29 cells) was 120 ± 7.6 nM and the melting point was 246 to 247 °C (dec.).

— article PMC6591251, “Discovery of potent necroptosis inhibitors targeting RIPK1 kinase activity for the treatment of inflammatory disorder and cancer metastasis” (Cell Death & Disease, 2019)
